# Assay results: patent publication US8906868B2, “Aminoglycoside derivatives” (Rempex Pharmaceuticals, Inc., priority 2010, dated 2014)
# Where two headings read alike, the source gives them in different places.
# Key:
# [1] = test system: ACM1006 acc(6′)-Ib; assay: microbe, parasite or virus in culture; type: cell-based, Acinetobacter baumannii; conditions: Acinetobacter baumannii; Table 4; read-out: Compound MIC on Bacterial Strains: Acinetobacter baumannii ACM1006 acc(6′)-Ib
# Procedure, shortened: (§1)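 CLSI broth microdilution in CaMHB; 2-fold serial dilutions; 5×10^5 CFU/ml final inoculum; 18 h, 35° C; OD600 turbidity plus visual check.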
# [2] = test system: Staphylococcus aureus (ATCC 29213); assay: MIC, broth microdilution; conditions: Staphylococcus aureus
# [3] = test system: ECM6007 aac(6′) + aph(2″); assay: microbe, parasite or virus in culture; type: cell-based, Escherichia coli; conditions: Escherichia coli, 18 h; Table 4; read-out: Compound MIC on Bacterial Strains: Escherichia coli ECM6007 aac(6′) + aph(2″)
# Procedure, shortened: as §1
# [4] = test system: EC1001 acc(6′)-Ib; assay: microbe, parasite or virus in culture; type: cell-based, Escherichia coli; conditions: Escherichia coli; Table 4; read-out: Compound MIC on Bacterial Strains: Escherichia coli EC1001 acc(6′)-Ib
# Procedure, shortened: as §1
# [5] = test system: Escherichia coli (ATCC 25922); assay: MIC, broth microdilution; conditions: Escherichia coli
# [6] = test system: Pseudomonas aeruginosa (ATCC 27853); assay: MIC, broth microdilution; conditions: Pseudomonas aeruginosa
# [7] = test system: rats; assay: Nephrotoxicity of test compounds in rats; conditions: once daily subcutaneous
# [8] = test system: PAM3072 aac(6′)-II; assay: microbe, parasite or virus in culture; type: cell-based, Pseudomonas aeruginosa; conditions: Pseudomonas aeruginosa, Table 5; read-out: Compound MIC on Bacterial Strains: Pseudomonas aeruginosa PAM3072 aac(6′)-II
# Procedure, shortened: as §1
# [9] = test system: PAM3073 aac(6′)-I; assay: microbe, parasite or virus in culture; type: cell-based, Pseudomonas aeruginosa; conditions: Pseudomonas aeruginosa, Table 5; read-out: Compound MIC on Bacterial Strains: Pseudomonas aeruginosa PAM3073 aac(6′)-I
# Procedure, shortened: as §1
# [10] = test system: ECM6003 rmtB; assay: microbe, parasite or virus in culture; type: cell-based, Escherichia coli; conditions: Escherichia coli; Table 3; read-out: Compound MIC on Bacterial Strains: ECM6003 rmtB
# Procedure, shortened: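 Broth microdilution per CLSI M7-A7 in cation-adjusted Mueller Hinton broth with 2-fold serial dilutions and 5×10^5 CFU/ml inoculum. Incubated 18 hours at 35 °C; MIC read by turbidity at 600 nm and confirmed visually.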
# [11] = test system: ECM6011 aph(3′)-I; assay: microbe, parasite or virus in culture; type: cell-based, Escherichia coli; conditions: Escherichia coli, read-out: Compound MIC on Bacterial Strains: ECM6011 aph(3′)-I
# Procedure, shortened: (§2)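 CLSI broth microdilution; CaMHB; 2-fold dilutions; 5×10^5 CFU/ml; 18 h, 35° C; OD600 turbidity plus visual check for MIC.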
# [12] = test system: ECM6010 ant(2″)-I; assay: microbe, parasite or virus in culture; type: cell-based, Escherichia coli; conditions: Escherichia coli, read-out: Compound MIC on Bacterial Strains: ECM6010 ant(2″)-I
# Procedure, shortened: as §2
# [13] = test system: ECM6006 aph(3′)-III; assay: microbe, parasite or virus in culture; type: cell-based, Escherichia coli; conditions: Escherichia coli, read-out: Compound MIC on Bacterial Strains: ECM6006 aph(3′)-III
# Procedure, shortened: as §2
# [14] = test system: ECM6009 aac(3)-II; assay: microbe, parasite or virus in culture; type: cell-based, Escherichia coli; conditions: Escherichia coli, read-out: Compound MIC on Bacterial Strains: ECM6009 aac(3)-II
# Procedure, shortened: as §2
# [15] = test system: EC1002 aph(3′)-IV; assay: organism not typed; type: cell-based; conditions: read-out: Compound MIC on Bacterial Strains: EC1002 aph(3′)-IV
# Procedure, shortened: as §2
# [16] = test system: Klebsiella pneumonia (ATCC 43816); assay: MIC, broth microdilution; conditions: Klebsiella pneumoniae, ATCC43816, read-out: Compound MIC on Bacterial Strains: K. pneumonia ATCC 43816
# [17] = test system: Sa 287 aac(6′) + aph(2″); assay: microbe, parasite or virus in culture; type: cell-based, Staphylococcus aureus; conditions: Staphylococcus aureus, 18 h; Table 5; read-out: Compound MIC on Bacterial Strains: Staphylococcus aureus Sa 287 aac(6′) + aph(2″)
# Description: To compare microbiological activity of the test compounds, minimum inhibitory concentrations (MIC.s) were determined. Antibiotic MICs were obtained using the broth microdilution method according to Clinical and Laboratory Standards Institute (CLSI) approved guidelines (Methods for dilution antimicrobial susceptibility tests for bacteria that grow aerobically; approved standard—7th ed. CLSI document M7-A7. Clinical and Laboratory Standards Institute, Wayne, Pa., incorporated herein by reference in its entirety). Antibiotics were dissolved as specified by CLSI (Performance standards for antimicrobial susceptibility testing; Seventeenth informational supplement. CLSI document M100-S17. Clinical and Laboratory Standards Institute, Wayne, Pa., incorporated herein by reference in its entirety), and were serially diluted 2-fold in cation adjusted Mueller Hinton Broth (CaMHB) at 2× concentration. Bacterial inoculums were prepared in CaMHB by suspension of a colony from an agar plate that was prepared the previous day to obtain a final concentration of 5×10^5CFU/ml. The plates were incubated for 18 hours at 35° C. […] MIC.s were determined by reading the turbidity of plate wells using a SpectraMax Plus384 plate reader (Molecular Devices, Sunnyvale, Calif., USA) at 600 nm and were confirmed by visual inspection.
# [18] = test system: ACM1005 ATCC 19004; assay: MIC, broth microdilution; type: cell-based, Acinetobacter baumannii; conditions: Acinetobacter baumannii, ATCC19004; Table 4; read-out: Compound MIC on Bacterial Strains: Acinetobacter baumannii ACM1005 ATCC 19004
# Procedure, shortened: as §1
# [19] = test system: Acinetobacter baumannii (ATCC 19606); assay: MIC, broth microdilution; conditions: Acinetobacter baumannii, ATCC19606, read-out: Compound MIC on Bacterial Strains: A. baumannii ATCC 19606
# [20] = ATCC29213, read-out: Compound MIC on Bacterial Strains: S. aureus ATCC 29213, QC strain, Table 2
# [21] = ATCC29213, read-out: Compound MIC on Bacterial Strains: Staphylococcus aureus SAM1000 ATCC 29213, Table 5
# [22] = ATCC25922, read-out: Compound MIC on Bacterial Strains: E. coli ATCC 25922
# [23] = ATCC25922, read-out: Compound MIC on Bacterial Strains: ECM6000 ATCC 25922
# [24] = ATCC25922, read-out: Compound MIC on Bacterial Strains: Escherichia coli ECM6000 ATCC 25922
# [25] = ATCC27853, read-out: Compound MIC on Bacterial Strains: P. aeruginosa ATCC 27853
# [26] = ATCC27853, read-out: Compound MIC on Bacterial Strains: Pseudomonas aeruginosa PAM3034 ATCC 27853
SMILES,MIC [1] [mg/L],"MIC [2, 20] [mg/L]","MIC [2, 21] [mg/L]",MIC [3] [mg/L],MIC [4] [mg/L],"MIC [5, 22] [mg/L]","MIC [5, 23] [mg/L]","MIC [5, 24] [mg/L]","MIC [6, 25] [mg/L]","MIC [6, 26] [mg/L]",Histopathology Results After 7 days of Dosing ([7]; 10 mg/kg/day),Histopathology Results After 14 days of Dosing ([7]; 10 mg/kg/day),Histopathology Results After 7 days of Dosing ([7]; 30 mg/kg/day),Histopathology Results After 14 days of Dosing ([7]; 30 mg/kg/day),Histopathology Results After 7 days of Dosing ([7]; 100 mg/kg/day),Histopathology Results After 14 days of Dosing ([7]; 100 mg/kg/day),MIC [8] [mg/L],MIC [9] [mg/L],MIC [10] [mg/L],MIC [11] [mg/L],other results
"CN[C@@H]1[C@@H](O)[C@@H](O[C@@H]2[C@@H](O)[C@H](O[C@H]3O[C@H](CNCCO)CC[C@H]3N)[C@@H](N)C[C@H]2NC(=O)[C@@H](O)CCN)OC[C@]1(C)O [Compound 1, (2S)-4-amino-N-((1R,2S,3S,4R,5S)-5-amino-4-((2R,3R,6S)-3-amino-6-((2-hydroxyethylamino)methyl)tetrahydro-2H-pyran-2-yloxy)-2-((2R,3R,5R)-3,5-dihydroxy-5-methyl-4-(methylamino)tetrahydro-2H-pyran-2-yloxy)-3-hydroxycyclohexyl)-2-hydroxybutanamide]",< 1,< 1,< 1,< 1,< 1,< 1,< 1,< 1,1 to 8,1 to 8,No Change,No Change,Mild Nephrosis,Moderate to Severe Nephrosis,Severe Nephrosis,4/4 Died,> 8,1 to 8,> 8,< 1,MIC [12]: < 1 mg/L; MIC [13]: 1 to 8 mg/L; MIC [14]: < 1 mg/L; MIC [15]: < 1 mg/L; MIC [16]: < 1 mg/L; MIC [17]: 1 to 8 mg/L; MIC [18]: < 1 mg/L; MIC [19]: > 8 mg/L
"CN[C@@H]1[C@@H](O)[C@@H](O[C@@H]2[C@@H](O)[C@H](O[C@H]3O[C@H](CNCCO)CC[C@H]3N)[C@@H](N)C[C@H]2NC(=O)[C@@H](O)CN)OC[C@]1(C)O [Compound 2, (S)-3-amino-N-((1R,2S,3S,4R,5S)-5-amino-4-((2R,3R,6S)-3-amino-6-((2-hydroxyethylamino)methyl)tetrahydro-2H-pyran-2-yloxy)-2-((2R,3R,4R,5R)-3,5-dihydroxy-5-methyl-4-(methylamino)tetrahydro-2H-pyran-2-yloxy)-3-hydroxycyclohexyl)-2-hydroxypropanamide]",1 to 8,< 1,< 1,< 1,< 1,< 1,< 1,< 1,1 to 8,1 to 8,Minimal Tubular Eosinophilia;,No change,Minimal Tubular Eosinophilia;,Minimal to Mild Dilatation,Mild Tubular Eosinophila,No Deaths; Moderate to Severe,> 8,1 to 8,> 8,< 1,MIC [12]: < 1 mg/L; MIC [13]: < 1 mg/L; MIC [14]: < 1 mg/L; MIC [15]: 1 to 8 mg/L; MIC [16]: < 1 mg/L; MIC [17]: < 1 mg/L; MIC [18]: 1 to 8 mg/L; MIC [19]: > 8 mg/L
